Data published in the NIST ThermoML archive (doi:10.1021/je049546h).

Assays:
[1] = Liquid
[2] = xn = mol fraction of the nth substance listed; conditions: for mass density: Other PVT measurement; for Critical density: closed cell phase equilibration

O=C=O [carbon dioxide]
[1]
Conditions	Critical pressure [kPa]	Critical temperature [K]
Direct measurement	7360	–
Visual observation in a stirred cell	–	304.2

CCc1ccccc1 [ethylbenzene] + O=C=O
mass density [kg/m3], [2], Liquid
Conditions	303.2 K	308.2 K	313.2 K	318.2 K	323.2 K	328.2 K	333.2 K
x1 = 0.0211	709	665	590	–	–	–	–
x1 = 0.0384	741	715	673	633	583	–	–
x1 = 0.0512	762	735	702	671	630	603	–
x1 = 0.0637	782	761	731	703	675	642	607
x1 = 0.0751	790	769	748	722	697	672	646
x1 = 0.0998	818	799	779	760	742	723	706

[2], Liquid
Conditions	Critical density [kg/m3]
x1 = 0.0225	520
x1 = 0.0363	545
x1 = 0.0488	580

C=Cc1ccccc1 [styrene] + O=C=O
mass density [kg/m3], [2]
Conditions	x1 = 0.0225	x1 = 0.0363	x1 = 0.0488	x1 = 0.0742	x1 = 0.101
303.2 K, Liquid	721	755	774	805	831
308.2 K, Liquid	675	721	747	781	813
313.2 K, Liquid	615	683	711	758	794
318.2 K, Liquid	529	635	682	734	774
321.2 K, Gas	500	–	–	–	–
323.2 K, Liquid	–	582	645	711	755
328.2 K, Liquid	–	–	608	685	733
330.2 K, Gas	–	527	–	–	–
333.2 K, Gas	–	–	570	–	–
333.2 K, Liquid	–	–	–	663	713

[2], Liquid
Conditions	Critical density [kg/m3]
x1 = 0.0211	504
x1 = 0.0384	546
x1 = 0.0512	560
x1 = 0.0637	590
